Results taken from patent US7273716B2 (priority 2003, dated 2007).

Columns and labels:
[1] = target: T1, GS-7340 ester hydrolase (Homo sapiens, UniProt P10619); test: biochemical
T1 construct: Fresh human PBMCs are obtained from patients undergoing leukophoresis; from tissue; host or cells: human peripheral blood mononuclear cells (PBMC extract, purified by Q15, Butyl Sepharose HIC and Con A chromatography)
T1 sequence (P10619 29-326 limits assumed): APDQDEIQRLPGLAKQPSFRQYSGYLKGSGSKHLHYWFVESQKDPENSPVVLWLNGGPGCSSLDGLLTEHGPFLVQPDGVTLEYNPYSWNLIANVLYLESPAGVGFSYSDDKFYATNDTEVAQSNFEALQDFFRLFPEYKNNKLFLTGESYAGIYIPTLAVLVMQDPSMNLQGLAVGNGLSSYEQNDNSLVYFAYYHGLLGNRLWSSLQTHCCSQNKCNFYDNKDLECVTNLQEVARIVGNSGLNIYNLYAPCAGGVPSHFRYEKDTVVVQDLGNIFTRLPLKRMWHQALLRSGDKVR
T1 sequence (P10619 327-480 limits assumed): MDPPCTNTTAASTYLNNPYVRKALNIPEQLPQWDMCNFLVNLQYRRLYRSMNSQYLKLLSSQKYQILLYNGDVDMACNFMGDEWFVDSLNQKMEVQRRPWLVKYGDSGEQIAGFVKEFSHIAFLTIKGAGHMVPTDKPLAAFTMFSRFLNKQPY

[2] = test system: Cat A+ and Cat A- human primary fibroblasts; test: Metabolism of acyclic nucleotide phosphonate prodrugs in Cat A+/- fibroblasts; conditions: 10 μM 14C-labeled Compound K, 37° C., 15-240 min

O=c1oc(Cl)c(Cl)c2ccccc12 [3,4-dichloroisocoumarin, 3,4 dichloroisocoumarin]
IC50 [1]: 500 nM

C=C(OC(C)C)[C@H](C)N[P@](=O)(CO[C@H](C)Cn1cnc2c(C)ncnc21)Oc1ccccc1 [Compound K]
concentration of metabolites in Cat A+ control fibroblasts relative to Cat A- (galactosialidosis) fibroblasts [2]: 6-9 times
